Like-named read-outs stand apart in the source and are kept apart here. Blank lines part the entries; values can stand above or below the compound they belong to.
What was measured:
Experiment in all cases: microbe, parasite or virus in culture
[1] = tested on: T1, Klebsiella pneumoniae K66-45; design: species or system clinical isolates of E. coli and K. pneumoniae; Broth microdilution MIC (CLSI), cation-adjusted Mueller-Hinton broth, visual reading, antibiotic alone against clinical isolates; conditions: Klebsiella pneumoniae, K6645, antibiotic alone
T1 construct: K66-45
Protocol: (§1) MICs for clinical isolates were determined in a broth microdilution assay according to Clinical and Laboratory Standards Institute (CLSI) ([75]), using cation-adjusted Mueller-Hinton broth (Thermo Fisher Scientific, Lenexa, USA). The direct colony suspension method was utilized by preparing an inoculum of an OD600 0.17, except for E. coli #36 in which 0.10 was used, which equated to a concentration of 10^8 colony-forming units (CFU) per mL. Inoculum controls were included for all assays ([76]). MICs for all clinical isolates were determined alone and in combination with inhibitors for all BLs tested, either using manually prepared plates of aztreonam, cefepime, ceftazidime, and amoxicillin or premade plates of meropenem (Sensititre), and all antibiotics tested at a twofold increasing concentration of 0.03–64 mg/L (Table 1; Table S3). Compound APC24-7 was tested at a fixed concentration of 14, 28, and 57 µM (8, 16, or 32 mg/L) with meropenem, and for all other BLs tested at the highest inhibitor concentration to be able to compare the efficiency of the BI/BLI combinations. Taniborbactam was tested at a fixed equimolar concentration (6.5, 13, and 26 mg/L) and only evaluated with meropenem. A minimum of 2–3 replicates was performed for all combinations. Assay plates were incubated at 37°C without shaking for 16–20 h, and the results were visually interpreted in accordance with EUCAST guidelines and clinical breakpoint table version 15.0 (www.eucast.org).

[2] = tested on: T2, Klebsiella pneumoniae KresCPE0372; design: species or system clinical isolates of E. coli and K. pneumoniae; Broth microdilution MIC (CLSI), cation-adjusted Mueller-Hinton broth, visual reading, antibiotic alone against clinical isolates; conditions: Klebsiella pneumoniae, KRESCPE0372, antibiotic alone
T2 construct: KresCPE0372
Protocol: as §1

Escherichia coli #22 = tested on: T3, Escherichia coli #22; design: species or system clinical isolates of E. coli and K. pneumoniae; Broth microdilution MIC (CLSI), cation-adjusted Mueller-Hinton broth, visual reading, antibiotic alone against clinical isolates; conditions: Escherichia coli, antibiotic alone
T3 construct: #22
Protocol: as §1

Escherichia coli #29 = tested on: T4, Escherichia coli #29; design: species or system clinical isolates of E. coli and K. pneumoniae; Broth microdilution MIC (CLSI), cation-adjusted Mueller-Hinton broth, visual reading, antibiotic alone against clinical isolates; conditions: Escherichia coli, antibiotic alone
T4 construct: #29
Protocol: as §1

Escherichia coli #36 = tested on: T5, Escherichia coli #36; design: species or system clinical isolates of E. coli and K. pneumoniae; Broth microdilution MIC (CLSI), cation-adjusted Mueller-Hinton broth, visual reading, antibiotic alone against clinical isolates; conditions: Escherichia coli, antibiotic alone
T5 construct: #36
Protocol: as §1

[3] = tested on: T6, Klebsiella pneumoniae KresCPE0367; design: species or system clinical isolates of E. coli and K. pneumoniae; Broth microdilution MIC (CLSI), cation-adjusted Mueller-Hinton broth, visual reading, antibiotic alone against clinical isolates; conditions: Klebsiella pneumoniae, KRESCPE0367, antibiotic alone
T6 construct: KresCPE0367
Protocol: as §1

[4] = tested on: T7, Klebsiella pneumoniae BAA-2146; design: species or system clinical isolates of E. coli and K. pneumoniae; Broth microdilution MIC (CLSI), cation-adjusted Mueller-Hinton broth, visual reading, antibiotic alone against clinical isolates; conditions: Klebsiella pneumoniae, BAA2146, antibiotic alone
T7 construct: ATCC BAA-2146
Protocol: as §1

[5] = tested on: T8, Klebsiella pneumoniae KresCPE0353; design: species or system clinical isolates of E. coli and K. pneumoniae; Broth microdilution MIC (CLSI), cation-adjusted Mueller-Hinton broth, visual reading, antibiotic alone against clinical isolates; conditions: Klebsiella pneumoniae, KRESCPE0353, antibiotic alone
T8 construct: KresCPE0353
Protocol: as §1

[6] = tested on: T9, Klebsiella pneumoniae KresCPE0097; design: species or system clinical isolates of E. coli and K. pneumoniae; Broth microdilution MIC (CLSI), cation-adjusted Mueller-Hinton broth, visual reading, antibiotic alone against clinical isolates; conditions: Klebsiella pneumoniae, KRESCPE0097, antibiotic alone
T9 construct: KresCPE0097
Protocol: as §1

[7] = tested on: T10, Escherichia coli BAA-2469; design: species or system clinical isolates of E. coli and K. pneumoniae; Broth microdilution MIC (CLSI), cation-adjusted Mueller-Hinton broth, visual reading, antibiotic alone against clinical isolates; conditions: Escherichia coli, BAA2469, antibiotic alone
T10 construct: ATCC BAA-2469
Protocol: as §1

[8] = tested on: T11, Klebsiella pneumoniae BAA1705; design: species or system clinical isolates of E. coli and K. pneumoniae; Broth microdilution MIC (CLSI), cation-adjusted Mueller-Hinton broth, visual reading, antibiotic alone against clinical isolates; conditions: Klebsiella pneumoniae, BAA1705, antibiotic alone
T11 construct: ATCC BAA-1705
Protocol: as §1

[9] = tested on: T12, Klebsiella pneumoniae K46-62; design: species or system clinical isolates of E. coli and K. pneumoniae; Broth microdilution MIC (CLSI), cation-adjusted Mueller-Hinton broth, visual reading, antibiotic alone against clinical isolates; conditions: Klebsiella pneumoniae, K4662, antibiotic alone
T12 construct: K46-62
Protocol: as §1

Escherichia coli MP32-64 = tested on: T13, Escherichia coli MP32-64; design: species or system E. coli E. cloni 10G; Microdilution MIC of inhibitor alone in LB, OD600 read-out, E. coli 10G without or with empty vector; conditions: MP3264, inhibitor alone
T13 construct: MP32-64
Protocol: (§2) Susceptibility testing of isogenic E. coli E. cloni 10G (Table 2) was determined by both the microdilution assay. […] Overnight cultures were prepared in LB supplemented with 25 mg/L chloramphenicol at 37°C under shaking at 700 rpm. The overnight cultures were diluted in PBS to 10^6 CFU/ mL, followed by inoculation in LB to ~10^5 CFU in 384-well plates (VWR, Radnor, PA, USA). Plates were prepared with twofold increasing concentrations of meropenem and cefepime ([…], respectively) to a total inoculated volume of 100 µL Plates were incubated at 37°C without shaking for 19–21 h. OD600 was determined in a SpectraMax Plus plate reader (Molecular Devices).

Escherichia coli MP21-05 = tested on: T14, Escherichia coli MP21-05; design: species or system E. coli E. cloni 10G; Microdilution MIC of inhibitor alone in LB, OD600 read-out, E. coli 10G without or with empty vector; conditions: MP2105, inhibitor alone
T14 construct: MP21-05
Protocol: as §2

[10] = read-out: MIC AMX (mg/L) / AMX alone
[11] = read-out: MIC APC24-7 (μM) / Taniborbactam**
[12] = read-out: MIC AZT (mg/L) / AZT alone
[13] = read-out: MIC APC24-7 (μM) / APC148*
[14] = read-out: MIC FEP (mg/L) / FEP alone

SMILES: CC1(C)S[C@@H]2[C@H](NC(=O)[C@H](N)c3ccc(O)cc3)C(=O)N2[C@H]1C(=O)O [amoxicillin]
MIC [1, 10]: > 64 mg/L | MIC [2, 10]: > 64 mg/L | MIC (Escherichia coli #22; [10]): > 64 mg/L | MIC (Escherichia coli #29; [10]): > 64 mg/L | MIC (Escherichia coli #36; [10]): > 64 mg/L | MIC [3, 10]: > 64 mg/L | MIC [4, 10]: > 64 mg/L | MIC [5, 10]: > 64 mg/L | MIC [6, 10]: > 64 mg/L | MIC [7, 10]: > 64 mg/L | MIC [8, 10]: > 64 mg/L | MIC [9, 10]: > 64 mg/L

MIC (Escherichia coli MP32-64; [11]): > 906 µM | MIC (Escherichia coli MP21-05; [11]): > 906 µM
SMILES: NCCN[C@H]1CC[C@H](CC(=O)N[C@H]2Cc3cccc(C(=O)O)c3OB2O)CC1 [taniborbactam]

SMILES: C[C@H]1[C@H](NC(=O)/C(=N\OC(C)(C)C(=O)O)c2csc(N)n2)C(=O)N1S(=O)(=O)O [aztreonam]
MIC [1, 12]: > 64 mg/L | MIC [2, 12]: 32 mg/L | MIC (Escherichia coli #22; [12]): > 64 mg/L | MIC (Escherichia coli #29; [12]): > 64 mg/L | MIC (Escherichia coli #36; [12]): > 64 mg/L | MIC [3, 12]: > 64 mg/L | MIC [4, 12]: > 64 mg/L | MIC [5, 12]: > 64 mg/L | MIC [6, 12]: 64 mg/L | MIC [7, 12]: 16 mg/L | MIC [8, 12]: > 64 mg/L | MIC [9, 12]: > 64 mg/L

MIC (Escherichia coli MP32-64; [13]): > 906 µM | MIC (Escherichia coli MP21-05; [13]): > 906 µM
SMILES: CN(C[C@H](O)[C@@H](O)[C@H](O)[C@H](O)CO)C(=O)c1ccc(CN(Cc2ccccn2)Cc2ccccn2)nc1 [APC148]

SMILES: CO/N=C(\C(=O)N[C@@H]1C(=O)N2C(C(=O)[O-])=C(C[N+]3(C)CCCC3)CS[C@H]12)c1csc(N)n1 [cefepime]
MIC [1, 14]: > 64 mg/L | MIC [2, 14]: > 64 mg/L | MIC (Escherichia coli #22; [14]): > 64 mg/L | MIC (Escherichia coli #29; [14]): > 64 mg/L | MIC (Escherichia coli #36; [14]): > 64 mg/L | MIC [3, 14]: > 64 mg/L | MIC [4, 14]: > 64 mg/L | MIC [5, 14]: > 64 mg/L | MIC [6, 14]: 16 mg/L | MIC [7, 14]: > 64 mg/L | MIC [8, 14]: > 64 mg/L | MIC [9, 14]: > 64 mg/L

SMILES: CC(C)(O/N=C(\C(=O)N[C@@H]1C(=O)N2C(C(=O)[O-])=C(C[n+]3ccccc3)CS[C@H]12)c1csc(N)n1)C(=O)O [ceftazidime]
MIC ([1]; read-out: MIC): > 64 mg/L | MIC ([2]; read-out: MIC): > 64 mg/L | MIC (Escherichia coli #22; read-out: MIC): > 64 mg/L | MIC (Escherichia coli #29; read-out: MIC): > 64 mg/L | MIC (Escherichia coli #36; read-out: MIC): > 64 mg/L | MIC ([3]; read-out: MIC): > 64 mg/L | MIC ([4]; read-out: MIC): > 64 mg/L | MIC ([5]; read-out: MIC): > 64 mg/L | MIC ([6]; read-out: MIC): 8 mg/L | MIC ([7]; read-out: MIC): > 64 mg/L | MIC ([8]; read-out: MIC): > 64 mg/L | MIC ([9]; read-out: MIC): > 64 mg/L

— publication PMC12724231, “APC24-7, a covalent combination of boronic acid and chelator moieties, restores β-lactam efficiency against metallo-β-lactamase-producers” (mSphere, 2025)
